# Reference: publication PMC12492365, “Drug Interaction of Dasatinib with Thymoquinone: A Pharmacokinetic Study in Rats” (International Journal of Medical Sciences, 2025)
# Like-named read-outs stand apart in the source and are kept apart here.
# Experiments:
# [1] = Pharmacokinetic study of oral dasatinib with and without TQ pretreatment, plasma UHPLC-MS/MS, non-compartmental analysis; format: in vivo, Wistar rats; details: rats
# Method: (§1) The adult male Wistar rats (204-226 g) were procured from the College of Pharmacy Animal Care and Use Facility, King Saud University, Riyadh, Saudi Arabia. The animals were hold in polycarbonate rat cages, with 12h light/dark cycle at 25 ± 2 °C. All groups were allowed ad libitum before the study. This study was conducted following the ethical guidelines approved by the facility and the study was approved by the King Saud University College of Pharmacy Research Ethics Committee (KSU-SE-21-58). Overnight fasted animals (n=24) were divided into four groups (n=6 per group). Group I (normal controls) and Group II were administered normal saline by oral gavage for seven consecutive days. On the seventh day, Group II received a single dose of DAS (25 mg/kg, p.o.) via oral gavage. Group III received TQ (40 mg/kg, p.o.) via oral gavage for seven days, and two hours after the final TQ dose, DAS (25 mg/kg, p.o.) was administered by oral gavage. Group IV received TQ (40 mg/kg/day) by oral gavage for seven consecutive days. For the PK study, blood samples were collected via a tail vein in heparinized vacutainers at various time intervals (i.e., 0, 0.5, 1, 2, 4, 6, 8, 10, 12 h post DAS dosing). The collected blood was centrifuged at 3000 ×g for 10 minutes to separate the plasma, which was then collected and stored in Eppendorf tubes for UHPLC-MS/MS analysis. After completion of the study, the animals were euthanized, and liver and lumen tissues were collected for Western blot analysis. DAS concentrations in plasma samples were determined using an UHPLC-MS/MS method according to a previously described method. Briefly, DAS and ibrutinib (IBR;(internal standard, IS) were separated on an Acquity BEH C18 column. Prior to sample analysis, the method underwent validation for precision and accuracy. A non-compartmental analysis was empoyed to calculate the PK parameters of DAS using the PK Solver software (version 1.01).
# (§2) All data are expressed as the mean ± SEM. The pharmacokinetic and protein expression data were compared using one-way analysis of variance followed by Dunnett's test and a p value of ≤0.05 was used for statistical significance.
# rats = details: 30 mg/kg, no reference given; cited from earlier work
# Pgp = experiment: Western blot of Pgp protein expression in liver and lumen tissues; format: in vivo, Wistar rats; details: for Increase of Pgp expression: DAS 25 mg/kg p.o. vs untreated animals; for Suppression of Pgp expression: TQ pretreatment in DAS-treated rats vs DAS group
# Method: as §1
# (§3) The liver and intestine tissues were homogenized in RIPA lysis buffer and incubated for 30 minutes, followed by centrifugation at 10,000 rpm for 20 minutes at 4 °C. The supernatants were then collected and stored at -20 °C. Total protein content was determined using the bicinchoninic acid (BCA) assay. Protein expression of CYP3A2, Pgp, and BCRP proteins were analyzed according to previously published methods, [17], [34], [35].
# as §2
# CYP3A2 = experiment: Western blot of CYP3A2 protein expression in liver and lumen tissues; format: in vivo, Wistar rats; details: for Elevation of CYP3A2 protein expression: DAS 25 mg/kg p.o. vs normal controls; for Suppression of CYP3A2 upregulation: TQ 40 mg/kg p.o. seven days in DAS-treated rats vs DAS group
# Method: as §1, with “On the seventh day, Group II received a single dose of DAS (25 mg/kg, p.o.) via oral gavage. Group III received TQ (40 mg/kg, p.o.) via oral gavage for seven days, and two hours after the final TQ dose, DAS (25 mg/kg, p.o.) was administered by oral gavage.” left out, “For the PK study, blood samples were collected via a tail vein in heparinized vacutainers at various time intervals (i.e., 0, 0.5, 1, 2, 4, 6, 8, 10, 12 h post DAS dosing).” left out, “DAS concentrations in plasma samples were determined using an UHPLC-MS/MS method according to a previously described method.” left out, “1.01). The liver and intestine tissues were homogenized in RIPA lysis buffer and incubated for 30 minutes, followed by centrifugation at 10,000 rpm for 20 minutes at 4 °C. The supernatants were then collected and stored at -20 °C. Total protein content was determined using the bicinchoninic acid (BCA) assay. Protein expression of CYP3A2, Pgp, and BCRP proteins were analyzed according to previously published methods, [17], [34], [35]. All data are expressed as the mean ± SEM.” for “1.01).”
# BCRP = experiment: Western blot of BCRP protein expression in liver and lumen tissues; format: in vivo, Wistar rats; details: for Induction of BCRP protein expression: oral DAS vs untreated animals; for Inhibition of BCRP protein expression: TQ pretreatment in the DAS treatment group
# Method: as §1, §3, §2
# wistar rats = test system: wistar rats; parameters: method as in PMID 23440704, PMID 32273798; details: ref [46], [47], cited from earlier work
# [2] = DAS 25 mg/kg p.o. alone, mean ±SEM
# [3] = DAS+TQ vs DAS alone, positive = increase
# [4] = TQ pretreatment vs control (DAS alone), given as decrease
# [5] = male, Wistar, rat, plasma, po, DAS 25 mg/kg p.o. alone, mean ±SEM
compound,measurement,setting,value
"Cc1nc(Nc2ncc(C(=O)Nc3c(C)cccc3Cl)s2)cc(N2CCN(CCO)CC2)n1 [DAS, Dasatinib]",AUMC0-∞,[1]; [2],29259.52 ±3397.55 ng/ml*h^2
same,CL,[1]; [2],0.01 ±0.00 (mg/kg)/(ng/ml)/h
same,Vd,[1]; [2],0.11 ±0.00 (mg/kg)/(ng/ml)
same,% Change in AUC0-t of DAS,[1]; [3],166.53%
same,% Change in AUMC0-∞ of DAS,[1]; [3],0.34%
same,% Change in Cmax of DAS,[1]; [3],213.26%
same,% Change in Kel of DAS,[1]; [3],93.85%
same,% Change in Tmax of DAS,[1]; [3],83.33%
same,Decrease (reduction) in CL of DAS,[1]; [4],36.35%
same,Decrease (reduction) in Vd of DAS,[1]; [4],67.70%
same,Decrease in MRT of DAS,[1]; [4],49.12%
same,AUC(0-inf),[1]; [5],2500 ± 113 ng·h/mL
same,AUC(0-t),[1]; [5],1610 ± 28.9 ng·h/mL
same,Cmax,[1]; [5],246 ± 3.34 ng/mL
same,MRT,[1]; [5],11.5 ± 0.81 h
same,half-life,[1]; [5],7.77 ± 0.65 h
same,k el,[1]; [5],2.5e-05 s⁻¹
same,Tolerability in acute toxicity studies,rats,well tolerated
same,Increase of Pgp expression,Pgp; liver,75.62%
same,Increase of Pgp expression,Pgp; lumen,77.19%
same,Elevation of CYP3A2 protein expression,CYP3A2; liver,91.84%
same,Elevation of CYP3A2 protein expression,CYP3A2; lumen,93.47%
same,Induction of BCRP protein expression,BCRP; liver,74.82%
same,Induction of BCRP protein expression,BCRP; lumen,76.05%
"CC1=CC(=O)C(C(C)C)=CC1=O [TQ, 2-Methyl-5-(propan-2-yl)cyclohexa-2,5-diene-1,4-dione]",Effect on liver and lumen Pgp protein expressions,Pgp; TQ pretreatment alone vs untreated animals,did not affect
same,Suppression of Pgp expression,Pgp; liver,47.97%
same,Suppression of Pgp expression,Pgp; lumen,37.72%
same,Effect on CYP3A2 expressions,CYP3A2; TQ alone 40 mg/kg/day seven days vs normal controls,did not significantly altered
same,Suppression of CYP3A2 upregulation,CYP3A2; liver,53.98%
same,Suppression of CYP3A2 upregulation,CYP3A2; lumen,40.30%
same,maximum tolerated dose (MTD),"wistar rats; i.p. injection, female rats",15 mg/kg
same,maximum tolerated dose (MTD),"wistar rats; i.p. injection, male rats",22.5 mg/kg
same,maximum tolerated dose (MTD),"wistar rats; oral, both male and female rats",250 mg/kg
same,Effect on liver and lumen BCRP protein levels,BCRP; TQ treatment alone vs normal controls,no significant changes
same,Inhibition of BCRP protein expression,BCRP; liver,50.48%
same,Inhibition of BCRP protein expression,BCRP; lumen,48.46%
